Data reported in paper PMC8838787, “The Antiproliferative and Apoptotic Effects of a Novel Quinazoline Carrying Substituted-Sulfonamides: In Vitro and Molecular Docking Study” (Molecules, 2022).

Legend:
[1] = test system: LoVo (colon) cancer cells; assay: MTT cell viability assay, LoVo; assay type: cell-based; details: Homo sapiens, 48 h, average ± SD (n = 3)
Description: Compounds 4a–n were subjected to the cytotoxicity screening of the cell lines MCF-7 (breast), LoVo (colon), HepG2 (liver) and A549 (lung) carcinoma cells as well as HUVEC normal cell lines. The MTT assay was employed to assess cytotoxicity after 48 h of treatment with different concentrations of each compound and doxorubicin was used as a reference drug. The results were presented in Table 1 as growth inhibitory concentration (IC50 values).
Cell viability was determined using 3-(4,5-dimethylthiazol-2-yl)-2,5-diphenyl tetrazolium bromide (MTT) assay as stated previously. In brief, A549 (lung), HepG2 (liver), LoVo (colon), MCF-7 (breast) cancer cells as well as normal cells (HUVEC) were seeded in 96-well plates (10^5 per well) and compounds were added in a different final concentration. All cells were treated for 48 h, and then 10μL of MTT reagent (5 mg/mL) was added to each well and further incubated for 4 h. Thereafter, 0.1 mL of acidified isopropanol was added to solubilize formazan product and the developed color was measured at 570 nm in Microplate ELISA Reader (BioTek, Elx-800, Winooski, VT, USA). The IC50 values (concentration required for 50% inhibition of cell viability) were calculated using dose response curve. Cell viability was calculated as = (Ab Treated/Ab Control) × 100.
The A549, HepG2, LoVo and MCF-7 cancer cell lines were obtained from the German Collection of Microorganisms and Cell Cultures (DSMZ) (Braunschweig, Germany). For Human umbilical vein endothelial cells (HUVEC cells), it was purchased from American Type Culture Collection (16549; Cat no. PCS-100-010; ATTCC, Manassas, VA, USA).

Bax = assay: RT-PCR of apoptotic genes, Bax; assay type: cell-based, human; details: 24 h, vs control, normalized to β-actin
Text: We next used reverse transcription polymerase chain reaction (RT-PCR) and Western blot analysis to look at Bax (proapoptotic), Bcl-2 (antiapoptotic) and caspase 7 (executioner caspase) expression at gene and protein level as an additional marker of apoptosis occurrence. In fact, apoptotic cell death is mostly directed by the levels of Bcl-2 family, whether they are pro-apoptotic or antiapoptotic and targeting these molecules as a therapeutic strategy is continuously under development. As predicted, we observed an upregulation in the expression of Bax in MCF-7 treated cells to (1.7-, 2- and 2.4-fold) with compound 4d and to (1.2-, 1.4- and 1.6-fold) with compound 4f at (1.25, 2.5 and 5 µM) respectively (Figure 6). […] This shifting in Bax to Bcl-2 ratio usually started caspases activation which plays a critical role in apoptosis execution. Among all caspases, caspase 7 is considered as one of the most crucial executioner caspases that mediate cell death, and its expression strongly correlates with apoptosis stimulation.
The MCF-7 cells (0.1 × 10^6) in 12 well plates were treated with different concentrations of compounds 4d and 4f for 24 h and untreated cells were used as a control. After 24 h of treatment, cell culture media was removed and the cells were lysed with Trizol (Invitrogen, Waltham, MA, USA), and total RNA was extracted from all the samples [42]. The RNA was estimated by Nano-drop and 1 µg of RNA was used in the cDNA synthesis. The cDNA was synthesized from RNA by using a cDNA synthesis kit (Invitrogen, Thermo Fisher Scientific, lnc., Waltham, MA, USA) according to the manufacturer’s instruction. After Reverse transcription at 42 °C for 60 min, RT-PCR was performed using 5× Firepol Master Mix ready to load (Solis BioDyne) according to manufacturer’s instruction. RT-PCR was used to analyze the gene expression level of P53, Bcl2, Bax and caspase 7 using specific sets of primers for each gene, while β-actin was utilized as a housekeeping gene. The program was run as follows, initial denaturation at 95 °C for 5 min; denaturation at 95 °C for 30 s; annealing at 55 °C for 45 s; elongation at 72 °C for 45 s (30 Cycles) and final extension at 72 °C for 10 min. The RT-PCR products were electrophoresed on a 1.2% agarose gel containing ethidium bromide and the gel was imaged on a Licor machine.

IC50 [1] [µM]	Compound	expression of Bax (RT-PCR) (Bax; MCF-7, 1.25 µM) [fold]	expression of Bax (RT-PCR) (Bax; MCF-7, 2.5 µM) [fold]	expression of Bax (RT-PCR) (Bax; MCF-7, 5 µM) [fold]
6.87 ± 0.62	COc1cccc2c(=O)n(-c3ccc(S(=O)(=O)NCC(=O)Nc4ccc(C)cc4)cc3)c(SCC(=O)Nc3ccc(C)cc3)nc12 [Compound 4d]	1.7	2	2.4
9.76 ± 1.68	CCc1cccc(NC(=O)CNS(=O)(=O)c2ccc(-n3c(SCC(=O)Nc4cccc(CC)c4)nc4c(OC)cccc4c3=O)cc2)c1 [Compound 4f, N-(3-ethylphenyl)-2-((3-(4-(N-(2-((3-ethylphenyl)amino)-2-oxoethyl)sulfamoyl)-phe-nyl)-8-methoxy-4-oxo-3,4-dihydroquinazolin-2yl)thio)acetamide]	1.2	1.4	1.6
